In ChEMBL document CHEMBL5576038, “Design of a novel long-acting dual GLP-1/GIP receptor agonist” (Bioorg Med Chem, 2024):
Where a SMILES comes first, the peptide text is derived from it. [ ]: non-standard residue; d: D form. The star is where a group is joined. X1 = N[C@@H](CCCCNC(=O)CC[C@H](NC(=O)CCCCCCCCCCCCCCCCCCC(=O)O)C(=O)O)C(=O)NCCCC[C@H](N)C(=O)N[C@@H](CCCCNC(=O)C*)C(=O)O; X6 = N[C@@H](CCCCNC(=O)CC[C@H](NC(=O)CCCCCCCCCCCCCCCCC(=O)O)C(=O)O)C(=O)NCCCC[C@H](N)C(=O)N[C@@H](CCCCNC(=O)C*)C(=O)O; X7 = O=C(O)CCCCCCCCCCCCCCCCCCC(=O)NCCOCCOCC(=O)N[C@@H](CCC(=O)N[C@H](CCC(=O)N[C@H](CCCCNC(=O)C*)C(=O)O)C(=O)O)C(=O)O; X8 = O=C(O)CCCCCCCCCCCCCCCCC(=O)N[C@@H](CCC(=O)NCCOCCOCC(=O)NCCOCCOCC(=O)N[C@@H](CCCCNC(=O)C*)C(=O)O)C(=O)O; Aib = CC(C)(N)C(=O)O

Assays:
[1] = molecular target: T1, Gastric inhibitory polypeptide receptor (Homo sapiens, UniProt P48546); experiment: Agonist activity at human GIPR expressed in CHO cells assessed as increase in cAMP production incubated for 30 mins by Eu-cAMP tracer based microplate reader analysis; assay type: functional, cell-based
T1 sequence (P48546 whole entry): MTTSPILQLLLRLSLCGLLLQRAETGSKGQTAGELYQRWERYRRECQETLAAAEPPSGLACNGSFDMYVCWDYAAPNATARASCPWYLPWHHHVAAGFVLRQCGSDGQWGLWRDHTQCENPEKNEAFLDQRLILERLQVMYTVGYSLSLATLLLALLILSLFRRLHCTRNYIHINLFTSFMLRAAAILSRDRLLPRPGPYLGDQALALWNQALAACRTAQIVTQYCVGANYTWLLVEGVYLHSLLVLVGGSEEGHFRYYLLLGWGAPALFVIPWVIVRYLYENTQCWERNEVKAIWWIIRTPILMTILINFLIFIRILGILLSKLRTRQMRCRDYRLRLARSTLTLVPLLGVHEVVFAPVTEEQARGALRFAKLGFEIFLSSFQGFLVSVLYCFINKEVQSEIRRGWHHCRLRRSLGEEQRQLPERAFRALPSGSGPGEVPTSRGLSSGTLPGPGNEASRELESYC

[2] = molecular target: Glucagon-like peptide 1 receptor (Homo sapiens, UniProt P43220); experiment: Agonist activity at human GLP-1R expressed in CHO cells assessed as increase in cAMP production incubated for 30 mins by Eu-cAMP tracer based microplate reader analysis; assay type: functional, cell-based
Chain of Glucagon-like peptide 1 receptor (P43220 whole entry): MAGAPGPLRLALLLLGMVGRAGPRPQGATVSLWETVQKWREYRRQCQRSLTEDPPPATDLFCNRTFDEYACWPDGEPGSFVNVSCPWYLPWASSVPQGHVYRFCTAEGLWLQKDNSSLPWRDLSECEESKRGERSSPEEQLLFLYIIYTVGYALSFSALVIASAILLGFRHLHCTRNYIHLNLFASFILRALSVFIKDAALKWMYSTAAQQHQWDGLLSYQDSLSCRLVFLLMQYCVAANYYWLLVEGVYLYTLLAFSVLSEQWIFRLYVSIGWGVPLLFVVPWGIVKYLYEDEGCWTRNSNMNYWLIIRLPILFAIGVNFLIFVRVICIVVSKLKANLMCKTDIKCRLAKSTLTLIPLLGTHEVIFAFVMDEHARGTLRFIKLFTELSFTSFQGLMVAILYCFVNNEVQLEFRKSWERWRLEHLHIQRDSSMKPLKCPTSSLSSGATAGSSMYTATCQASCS

| Structure (SMILES) | EC50 [1] [nM] | EC50 [2] [nM] | EC50 ([1]; cho) [nM] | EC50 ([2]; cho) [nM] |
| --- | --- | --- | --- | --- |
| CC(C)C[C@H](NC(=O)[C@H](CC(C)C)NC(=O)[C@H](Cc1c[nH]c2ccccc12)NC(=O)[C@H](CCC(N)=O)NC(=O)[C@@H](NC(=O)[C@H](Cc1ccccc1)NC(=O)[C@H](CC(C)C)NC(=O)[C@H](CCCCN)NC(=O)[C@H](C)NC(=O)[C@H](C)NC(=O)[C@H](CCC(N)=O)NC(=O)[C@H](CCCCN)NC(=O)[C@H](CCC(=O)O)NC(=O)[C@H](CC(C)C)NC(=O)[C@H](CSCC(=O)NCCCC[C@H](NC(=O)[C@@H](N)CCCCNC(=O)[C@@H](N)CCCCNC(=O)CC[C@H](NC(=O)CCCCCCCCCCCCCCCCCCC(=O)O)C(=O)O)C(=O)O)NC(=O)[C@H](Cc1ccc(O)cc1)NC(=O)[C@H](CO)NC(=O)[C@H](Cc1ccc(O)cc1)NC(=O)[C@H](CC(=O)O)NC(=O)[C@H](CO)NC(=O)[C@@H](NC(=O)[C@H](Cc1ccccc1)NC(=O)[C@@H](NC(=O)CNC(=O)[C@H](CCC(=O)O)NC(=O)C(C)(C)NC(=O)[C@@H](N)Cc1ccc(O)cc1)[C@@H](C)O)[C@@H](C)O)C(C)C)C(=O)N[C@@H](C)C(=O)NCC(=O)NCC(=O)N1CCC[C@H]1C(=O)N[C@@H](CO)C(=O)N[C@@H](CO)C(=O)NCC(=O)N[C@@H](C)C(=O)N1CCC[C@H]1C(=O)N1CCC[C@H]1C(=O)N1CCC[C@H]1C(=O)N[C@@H](CO)C(N)=O (H-Y[Aib]EGTFTSDYSYC(X1)LEKQAAKLFVQWLLAGGPSSGAPPPS-NH2) | 0.14 | 0.46 | – | – |
| CC(C)C[C@H](NC(=O)[C@H](CC(C)C)NC(=O)[C@H](Cc1c[nH]c2ccccc12)NC(=O)[C@H](CCC(N)=O)NC(=O)[C@@H](NC(=O)[C@H](Cc1ccccc1)NC(=O)[C@H](CC(C)C)NC(=O)[C@H](CCCCN)NC(=O)[C@H](C)NC(=O)[C@H](C)NC(=O)[C@H](CCC(N)=O)NC(=O)[C@H](CCCCN)NC(=O)[C@H](CCC(=O)O)NC(=O)[C@H](CC(C)C)NC(=O)[C@H](CSCC(=O)NCCCC[C@H](NC(=O)COCCOCCNC(=O)COCCOCCNC(=O)CC[C@H](NC(=O)CCCCCCCCCCCCCCCCC(=O)O)C(=O)O)C(=O)O)NC(=O)[C@H](Cc1ccc(O)cc1)NC(=O)[C@H](CO)NC(=O)[C@H](Cc1ccc(O)cc1)NC(=O)[C@H](CC(=O)O)NC(=O)[C@H](CO)NC(=O)[C@@H](NC(=O)[C@H](Cc1ccccc1)NC(=O)[C@@H](NC(=O)CNC(=O)[C@H](CCC(=O)O)NC(=O)C(C)(C)NC(=O)[C@@H](N)Cc1ccc(O)cc1)[C@@H](C)O)[C@@H](C)O)C(C)C)C(=O)N[C@@H](C)C(=O)NCC(=O)NCC(=O)N1CCC[C@H]1C(=O)N[C@@H](CO)C(=O)N[C@@H](CO)C(=O)NCC(=O)N[C@@H](C)C(=O)N1CCC[C@H]1C(=O)N1CCC[C@H]1C(=O)N1CCC[C@H]1C(=O)N[C@@H](CO)C(N)=O (H-Y[Aib]EGTFTSDYSYC(X8)LEKQAAKLFVQWLLAGGPSSGAPPPS-NH2) | 1.31 | 1.75 | – | – |
| CC(C)C[C@H](NC(=O)[C@H](CC(C)C)NC(=O)[C@H](Cc1c[nH]c2ccccc12)NC(=O)[C@H](CCC(N)=O)NC(=O)[C@@H](NC(=O)[C@H](Cc1ccccc1)NC(=O)[C@H](CC(C)C)NC(=O)[C@H](CS)NC(=O)[C@H](C)NC(=O)[C@H](C)NC(=O)[C@H](CCC(N)=O)NC(=O)[C@H](CCCCN)NC(=O)[C@H](CCC(=O)O)NC(=O)[C@H](CC(C)C)NC(=O)[C@H](Cc1ccc(O)cc1)NC(=O)[C@H](Cc1ccc(O)cc1)NC(=O)[C@H](CO)NC(=O)[C@H](Cc1ccc(O)cc1)NC(=O)[C@H](CC(=O)O)NC(=O)[C@H](CO)NC(=O)[C@@H](NC(=O)[C@H](Cc1ccccc1)NC(=O)[C@@H](NC(=O)CNC(=O)[C@H](CCC(=O)O)NC(=O)C(C)(C)NC(=O)[C@@H](N)Cc1ccc(O)cc1)[C@@H](C)O)[C@@H](C)O)C(C)C)C(=O)N[C@@H](C)C(=O)NCC(=O)NCC(=O)N1CCC[C@H]1C(=O)N[C@@H](CO)C(=O)N[C@@H](CO)C(=O)NCC(=O)N[C@@H](C)C(=O)N1CCC[C@H]1C(=O)N1CCC[C@H]1C(=O)N1CCC[C@H]1C(=O)N[C@@H](CO)C(N)=O (H-Y[Aib]EGTFTSDYSYYLEKQAACLFVQWLLAGGPSSGAPPPS-NH2) | 0.6 | 0.29 | – | – |
| CC(C)C[C@H](NC(=O)[C@H](CC(C)C)NC(=O)[C@H](Cc1c[nH]c2ccccc12)NC(=O)[C@H](CCC(N)=O)NC(=O)[C@@H](NC(=O)[C@H](Cc1ccccc1)NC(=O)[C@H](CC(C)C)NC(=O)[C@H](CCCCN)NC(=O)[C@H](C)NC(=O)[C@H](C)NC(=O)[C@H](CCC(N)=O)NC(=O)[C@H](CSCC(=O)NCCCC[C@@H](NC(=O)CC[C@@H](NC(=O)CC[C@H](NC(=O)COCCOCCNC(=O)CCCCCCCCCCCCCCCCCCC(=O)O)C(=O)O)C(=O)O)C(=O)O)NC(=O)[C@H](CCC(=O)O)NC(=O)[C@H](CC(C)C)NC(=O)[C@H](Cc1ccc(O)cc1)NC(=O)[C@H](Cc1ccc(O)cc1)NC(=O)[C@H](CO)NC(=O)[C@H](Cc1ccc(O)cc1)NC(=O)[C@H](CC(=O)O)NC(=O)[C@H](CO)NC(=O)[C@@H](NC(=O)[C@H](Cc1ccccc1)NC(=O)[C@@H](NC(=O)CNC(=O)[C@H](CCC(=O)O)NC(=O)C(C)(C)NC(=O)[C@@H](N)Cc1ccc(O)cc1)[C@@H](C)O)[C@@H](C)O)C(C)C)C(=O)N[C@@H](C)C(=O)NCC(=O)NCC(=O)N1CCC[C@H]1C(=O)N[C@@H](CO)C(=O)N[C@@H](CO)C(=O)NCC(=O)N[C@@H](C)C(=O)N1CCC[C@H]1C(=O)N1CCC[C@H]1C(=O)N1CCC[C@H]1C(=O)N[C@@H](CO)C(N)=O (H-Y[Aib]EGTFTSDYSYYLEC(X7)QAAKLFVQWLLAGGPSSGAPPPS-NH2) | – | – | 0.2 | 0.51 |
| CC(C)C[C@H](NC(=O)[C@H](CC(C)C)NC(=O)[C@H](Cc1c[nH]c2ccccc12)NC(=O)[C@H](CCC(N)=O)NC(=O)[C@@H](NC(=O)[C@H](Cc1ccccc1)NC(=O)[C@H](CS)NC(=O)[C@H](CCCCN)NC(=O)[C@H](C)NC(=O)[C@H](C)NC(=O)[C@H](CCC(N)=O)NC(=O)[C@H](CCCCN)NC(=O)[C@H](CCC(=O)O)NC(=O)[C@H](CC(C)C)NC(=O)[C@H](Cc1ccc(O)cc1)NC(=O)[C@H](Cc1ccc(O)cc1)NC(=O)[C@H](CO)NC(=O)[C@H](Cc1ccc(O)cc1)NC(=O)[C@H](CC(=O)O)NC(=O)[C@H](CO)NC(=O)[C@@H](NC(=O)[C@H](Cc1ccccc1)NC(=O)[C@@H](NC(=O)CNC(=O)[C@H](CCC(=O)O)NC(=O)C(C)(C)NC(=O)[C@@H](N)Cc1ccc(O)cc1)[C@@H](C)O)[C@@H](C)O)C(C)C)C(=O)N[C@@H](C)C(=O)NCC(=O)NCC(=O)N1CCC[C@H]1C(=O)N[C@@H](CO)C(=O)N[C@@H](CO)C(=O)NCC(=O)N[C@@H](C)C(=O)N1CCC[C@H]1C(=O)N1CCC[C@H]1C(=O)N1CCC[C@H]1C(=O)N[C@@H](CO)C(N)=O (H-Y[Aib]EGTFTSDYSYYLEKQAAKCFVQWLLAGGPSSGAPPPS-NH2) | 14.8 | 6.51 | – | – |
| CC(C)C[C@H](NC(=O)[C@H](CC(C)C)NC(=O)[C@H](Cc1c[nH]c2ccccc12)NC(=O)[C@H](CCC(N)=O)NC(=O)[C@@H](NC(=O)[C@H](Cc1ccccc1)NC(=O)[C@H](CC(C)C)NC(=O)[C@H](CSCC(=O)NCCCC[C@H](NC(=O)[C@@H](N)CCCCNC(=O)[C@@H](N)CCCCNC(=O)CC[C@H](NC(=O)CCCCCCCCCCCCCCCCC(=O)O)C(=O)O)C(=O)O)NC(=O)[C@H](C)NC(=O)[C@H](C)NC(=O)[C@H](CCC(N)=O)NC(=O)[C@H](CCCCN)NC(=O)[C@H](CCC(=O)O)NC(=O)[C@H](CC(C)C)NC(=O)[C@H](Cc1ccc(O)cc1)NC(=O)[C@H](Cc1ccc(O)cc1)NC(=O)[C@H](CO)NC(=O)[C@H](Cc1ccc(O)cc1)NC(=O)[C@H](CC(=O)O)NC(=O)[C@H](CO)NC(=O)[C@@H](NC(=O)[C@H](Cc1ccccc1)NC(=O)[C@@H](NC(=O)CNC(=O)[C@H](CCC(=O)O)NC(=O)C(C)(C)NC(=O)[C@@H](N)Cc1ccc(O)cc1)[C@@H](C)O)[C@@H](C)O)C(C)C)C(=O)N[C@@H](C)C(=O)NCC(=O)NCC(=O)N1CCC[C@H]1C(=O)N[C@@H](CO)C(=O)N[C@@H](CO)C(=O)NCC(=O)N[C@@H](C)C(=O)N1CCC[C@H]1C(=O)N1CCC[C@H]1C(=O)N1CCC[C@H]1C(=O)N[C@@H](CO)C(N)=O (H-Y[Aib]EGTFTSDYSYYLEKQAAC(X6)LFVQWLLAGGPSSGAPPPS-NH2) | 19.2 | 1.26 | – | – |
| CC(C)C[C@H](NC(=O)[C@H](CCCCN)NC(=O)[C@H](C)NC(=O)[C@H](C)NC(=O)[C@H](CCC(N)=O)NC(=O)[C@H](CCCCN)NC(=O)[C@H](CCC(=O)O)NC(=O)[C@H](CC(C)C)NC(=O)[C@H](Cc1ccc(O)cc1)NC(=O)[C@H](Cc1ccc(O)cc1)NC(=O)[C@H](CO)NC(=O)[C@H](Cc1ccc(O)cc1)NC(=O)[C@H](CC(=O)O)NC(=O)[C@H](CO)NC(=O)[C@@H](NC(=O)[C@H](Cc1ccccc1)NC(=O)[C@@H](NC(=O)CNC(=O)[C@H](CCC(=O)O)NC(=O)C(C)(C)NC(=O)[C@@H](N)Cc1ccc(O)cc1)[C@@H](C)O)[C@@H](C)O)C(=O)N[C@@H](Cc1ccccc1)C(=O)N[C@H](C(=O)N[C@@H](CCC(N)=O)C(=O)N[C@@H](Cc1c[nH]c2ccccc12)C(=O)N[C@@H](CC(C)C)C(=O)N[C@@H](CS)C(=O)N[C@@H](C)C(=O)NCC(=O)NCC(=O)N1CCC[C@H]1C(=O)N[C@@H](CO)C(=O)N[C@@H](CO)C(=O)NCC(=O)N[C@@H](C)C(=O)N1CCC[C@H]1C(=O)N1CCC[C@H]1C(=O)N1CCC[C@H]1C(=O)N[C@@H](CO)C(N)=O)C(C)C (H-Y[Aib]EGTFTSDYSYYLEKQAAKLFVQWLCAGGPSSGAPPPS-NH2) | 2.33 | 2.83 | – | – |
